Source: patent US20230322756A1, “FUSED IMIDAZOLE DERIVATIVE, PREPARATION METHOD THEREFOR, AND MEDICAL USE THEREOF” (JIANGSU HENGRUI MEDICINE CO., LTD., priority 2020, published 2023)

target: hERG potassium channel (Homo sapiens (Human), UniProt Q12809); test: Blocking effect on hERG potassium currents, manual patch-clamp in CHO cells stably expressing hERG channel; format: cell-based; settings: read-out: IC50 for the blocking effect on the hERG potassium ion channel
From the text: This example is intended to assess the blocking effect of the compounds of the present disclosure and positive compound 1 (see the compound of Example 7 on page 125 of WO2019239319A1) on hERG potassium currents in a stable cell strain transfected with an hERG potassium channel by a manual patch-clamp assay. The structure of positive compound 1 is shown below:
The cells used in this experiment were from a CHO cell line (provided by Sophion Bioscience, Denmark) transfected with hERG cDNA and stably expressing hERG channel at cell passage number of P5. Cells were cultured in a medium containing the following components (all from Invitrogen): Ham's F12 medium, 10% (v/v) inactivated fetal bovine serum, 100 μg/mL hygromycin B, and 100 μg/mL geneticin.
CHO hERG cells were grown in a culture dish containing the above culture medium and cultured in an incubator at 37° C. with 5% CO2. 24-48 h before the electrophysiological experiment, CHO hERG cells were transferred to round slides placed in the culture dish and grown in the same culture medium and culture conditions as above. The density of CHO hERG cells on each round slide was required to achieve the requirement that most cells were independent and individual.
In this experiment, a manual patch-clamp system (HEKA EPC-10 signal amplifier and digital conversion system, purchased from HEKA Electronics, Germany) was used for whole cell current recording. Round slides with CHO hERG cells grown on the surface were placed in an electrophysiological recording chamber under an inverted microscope. The chamber was continuously perfused with extracellular fluid (approximately 1 mL/min). The experimental procedures were performed by conventional whole-cell patch-clamp current recording technology. Unless otherwise stated, the experiment was performed at room temperature ([…]). The cells were clamped at a voltage of −80 mV. The cell clamp voltage was depolarized to +20 mV to activate the hERG potassium channel, and then clamped to −50 mV 5 s later to eliminate inactivation and generate tail currents. The tail current peak was used as a value for the numeral value of the hERG current. After the hERG potassium currents recorded in the above step were stable under the continuous extracellular fluid perfusion in the recording chamber, the drug to be tested could be added for perfusion until the inhibitory effect of the drug on the hERG current reached a stable state. Generally, the last superposition of 3 consecutive current recording lines is used as a criterion for determining whether a stable state is reached. […]
The experimental data were analyzed by data analysis software supplied by HEKA Patchmaster(V2x73.2), Microsoft Excel, and Graphpad Prism 5.0. […]

hERG potassium channel, sequence (Q12809 whole entry): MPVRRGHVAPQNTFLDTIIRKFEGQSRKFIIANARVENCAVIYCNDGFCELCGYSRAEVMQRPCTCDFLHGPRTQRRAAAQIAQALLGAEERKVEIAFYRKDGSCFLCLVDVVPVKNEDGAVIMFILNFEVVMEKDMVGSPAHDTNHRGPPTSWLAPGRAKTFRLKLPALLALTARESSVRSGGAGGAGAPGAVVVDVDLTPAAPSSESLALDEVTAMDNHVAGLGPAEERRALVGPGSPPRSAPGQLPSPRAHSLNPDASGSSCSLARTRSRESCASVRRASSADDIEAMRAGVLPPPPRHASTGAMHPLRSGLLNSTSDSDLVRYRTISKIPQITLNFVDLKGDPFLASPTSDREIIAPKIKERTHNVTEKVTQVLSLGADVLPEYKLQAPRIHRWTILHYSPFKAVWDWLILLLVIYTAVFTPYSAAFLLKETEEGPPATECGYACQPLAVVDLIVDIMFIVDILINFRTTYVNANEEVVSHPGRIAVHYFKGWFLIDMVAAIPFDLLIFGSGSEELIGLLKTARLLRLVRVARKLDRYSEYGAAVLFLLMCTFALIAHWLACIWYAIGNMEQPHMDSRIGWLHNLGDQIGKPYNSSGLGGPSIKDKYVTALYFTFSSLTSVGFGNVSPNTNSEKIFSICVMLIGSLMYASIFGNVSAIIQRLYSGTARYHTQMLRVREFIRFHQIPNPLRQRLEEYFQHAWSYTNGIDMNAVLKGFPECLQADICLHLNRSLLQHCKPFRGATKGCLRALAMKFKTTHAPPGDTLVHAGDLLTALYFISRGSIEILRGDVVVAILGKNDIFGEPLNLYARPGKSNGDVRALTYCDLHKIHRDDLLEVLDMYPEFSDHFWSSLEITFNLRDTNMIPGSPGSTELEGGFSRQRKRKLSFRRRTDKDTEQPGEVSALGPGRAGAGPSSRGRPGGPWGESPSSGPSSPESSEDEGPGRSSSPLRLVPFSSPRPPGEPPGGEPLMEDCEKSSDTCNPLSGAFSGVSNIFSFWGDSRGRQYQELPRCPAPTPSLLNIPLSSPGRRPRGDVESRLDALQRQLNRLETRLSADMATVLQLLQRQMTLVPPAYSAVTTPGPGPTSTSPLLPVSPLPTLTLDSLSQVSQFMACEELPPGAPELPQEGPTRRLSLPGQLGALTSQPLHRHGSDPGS

SMILES | IC50 [nM]
O=C(O)c1ccc2nc(CN3CCC(c4cccc5c4OC(c4ccc(Cl)cc4F)CO5)CC3)n(C[C@@H]3CCO3)c2n1 (stereo partly drawn) [Example 12, 2-((4-(3-(4-Chloro-2-fluorophenyl)-2,3-dihydrobenzo[b][1,4]dioxan-5-yl)piperidin-1-yl)methyl)-3-((S)-oxetan-2-ylmethyl)-3H-imidazo[4,5-b]pyridine-5-carboxylic acid] | 26100

target: GLP-1 receptor (Homo sapiens (Human), UniProt P43220); test: Agonist activity against GLP-1 receptor, CRE-luciferase reporter (ONE-Glo) in CHO-K1/CRE-luc/GLP-1 receptor cells; format: cell-based; settings: 6 h incubation
Sequence (P43220 24-463): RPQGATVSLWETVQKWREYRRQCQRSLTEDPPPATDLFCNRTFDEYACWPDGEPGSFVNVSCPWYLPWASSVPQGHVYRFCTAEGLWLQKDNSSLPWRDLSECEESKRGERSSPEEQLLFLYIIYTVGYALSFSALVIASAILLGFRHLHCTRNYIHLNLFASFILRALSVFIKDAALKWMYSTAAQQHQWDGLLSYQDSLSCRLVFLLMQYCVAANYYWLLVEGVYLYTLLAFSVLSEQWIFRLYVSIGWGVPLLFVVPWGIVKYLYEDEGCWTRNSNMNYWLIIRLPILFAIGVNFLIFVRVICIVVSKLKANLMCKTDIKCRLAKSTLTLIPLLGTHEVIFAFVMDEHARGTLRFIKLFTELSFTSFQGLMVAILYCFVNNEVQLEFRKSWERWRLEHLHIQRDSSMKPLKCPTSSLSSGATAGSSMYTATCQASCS
From the text: This experiment was intended to test the agonist activity of the compound molecules against the GLP-1 receptor and evaluate the in vitro activity of the molecules according to EC50. The experiment adopted a ONE-Glo™ Luciferase Assay System (Promega, E6110). Under the action of compound molecules, GLP-1R downstream signaling pathways were activated to cause elevated cAMP level. The combination of cAMP and CRE could start the transcription expression of CRE downstream luciferase genes, the luciferase could emit fluorescence when reacting with substrates thereof, and the activity of the compound for agonizing GLP-1 receptors was reflected by measuring fluorescence signals through a ONE-Glo™ reagent.
Stably-expressed CHO-K1/CRE-luc/GLP-1 receptor cell strains (self-construction of GLP-1 receptor plasmid; CRE-luc plasmid Promega E8471) were constructed. CHO-K1/CRE-luc/GLP-1 receptor cells were digested, and resuspended after centrifugation. […] The plate was incubated in an incubator for 16 h (37° C., 5% CO2).
The compound was dissolved in DMSO to prepare a stock solution with an initial concentration of 20 mM. The starting concentration of the small molecule compound was 0.2 mM, and the compound underwent 3-fold serial dilution for a total of 10 concentration points, with DMSO at the 11th point. To another 96-well plate was added 95 μL of cell culture medium (DME/F-12+10% FBS), 5 μL of test samples with different concentrations were added to each well, followed by uniform mixing, and then 10 μL of test samples with different concentrations were added to each well, with two duplicate wells set for each sample. The plate was incubated in an incubator for 6 h (37° C., 5% CO2). The 96-well cell culture plate was taken out, and 100 μL of ONE-Glo™ reagent was added to each well, followed by incubation at room temperature for 10 min. The plate was placed in a microplate reader (EnVision 2105, PE) for determination of chemiluminescence.
Data were processed and analyzed using Microsoft Excel and Graphpad Prism 5.

SMILES | EC50 [nM] | Emax [%]
CC1(c2ccc(Cl)cc2F)COc2c(cccc2C2CCN(Cc3nc4ccc(C(=O)O)cc4n3C[C@@H]3CCO3)CC2)O1 (stereo partly drawn) [Example 18, 2-((4-(2-(4-Chloro-2-fluorophenyl)-2-methyl-2,3-dihydrobenzo[b][1,4]dioxan-5-yl)piperidin-1-yl)methyl)-1-(((S)-oxetan-2-yl)methyl)-1H-benzo[d]imidazole-6-carboxylic acid] | 18.4 | 103
O=C(O)c1ccc2nc(CN3CCC(c4cccc5c4OC(c4ccc(Cl)cn4)CO5)CC3)n(C[C@@H]3CCO3)c2c1 (stereo partly drawn) [Example 13, 2-((4-(3-(5-Chloropyridin-2-yl)-2,3-dihydrobenzo[b][1,4]dioxan-5-yl)piperidin-1-yl)methyl)-1-(((S)-oxetan-2-yl)methyl)-1H-benzo[d]imidazole-6-carboxylic acid] | 1.76 | 108
O=C(O)c1ccc2nc(CN3CC=C(c4cccc5c4OC(c4ccc(Cl)cc4F)CO5)CC3)n(C[C@@H]3CCO3)c2c1 (some centres unmarked) [Example 17] | 9.9 | 112
CC1(c2ccc(Cl)cc2F)COc2cccc(C3CCN(Cc4nc5ccc(C(=O)O)cc5n4C[C@@H]4CCO4)CC3)c2O1 (stereo partly drawn) [Example 20, 2-((4-(3-(4-Chloro-2-fluorophenyl)-3-methyl-2,3-dihydrobenzo[b][1,4]dioxan-5-yl)piperidin-1-yl)methyl)-1-(((S)-oxetan-2-yl)methyl)-1H-benzo[d]imidazole-6-carboxylic acid] | 51 | 90
O=C(O)c1ccc2nc(CN3CCN(c4cccc5c4O[C@@H](c4ccc(Cl)cc4F)CO5)CC3)n(C[C@@H]3CCO3)c2c1 [Example 14, 2-((4-((S)-3-(4-Chloro-2-fluorophenyl)-2,3-dihydrobenzo[b][1,4]dioxan-5-yl)piperazin-1-yl)methyl)-1-(((S)-oxetan-2-yl)methyl)-1H-benzo[d]imidazole-6-carboxylic acid] | 1.79 | 104
O=C(O)c1ccc2nc(CN3CCC(c4cccc5c4OCC(c4nc6ccccc6s4)O5)CC3)n(C[C@@H]3CCO3)c2c1 (stereo partly drawn) [Example 9, 2-((4-(2-(Benzo[d]thiazol-2-yl)-2,3-dihydrobenzo[b][1,4]dioxan-5-yl)piperidin-1-yl)methyl)-1-(((S)-oxetan-2-yl)methyl)-1H-benzo[d]imidazole-6-carboxylic acid] | 2.05 | 104

Second part, the molecule after the results:

EC50 [nM] | Emax [%] | SMILES
0.56 | 109 | O=C(O)c1ccc2nc(CN3CCC(c4cccc5c4OC(c4nc6ccccc6s4)CO5)CC3)n(C[C@@H]3CCO3)c2c1 (stereo partly drawn) [Example 1, 2-((4-(3-(Benzo[d]thiazol-2-yl)-2,3-dihydrobenzo[b][1,4]dioxan-5-yl)piperidin-1-yl)methyl)-1-(((S)-oxetan-2-yl)methyl)-1H-benzo[d]imidazole-6-carboxylic acid]
1.72 | 114 | O=C(O)c1ccc2nc(CN3CCC(c4cccc5c4OC(c4ccc(Cl)cc4F)CO5)CC3)n(C[C@@H]3CCO3)c2n1 (stereo partly drawn) [Example 12, 2-((4-(3-(4-Chloro-2-fluorophenyl)-2,3-dihydrobenzo[b][1,4]dioxan-5-yl)piperidin-1-yl)methyl)-3-((S)-oxetan-2-ylmethyl)-3H-imidazo[4,5-b]pyridine-5-carboxylic acid]
1.19 | 103 | O=C(O)c1ccc2nc(CN3CCC(c4cccc5c4OC[C@H](c4nc6ccccc6s4)O5)CC3)n(C[C@@H]3CCO3)c2c1 [Example 10, 2-((4-((R)-2-(Benzo[d]thiazol-2-yl)-2,3-dihydrobenzo[b][1,4]dioxan-5-yl)piperidin-1-yl)methyl)-1-(((S)-oxetan-2-yl)methyl)-1H-benzo[d]imidazole-6-carboxylic acid]
1.68 | 104 | O=C(O)c1ccc2nc(CN3CCC(c4cccc5c4OC[C@@H](c4nc6ccccc6s4)O5)CC3)n(C[C@@H]3CCO3)c2c1 [Example 11, 2-((4-((S)-2-(Benzo[d]thiazol-2-yl)-2,3-dihydrobenzo[b][1,4]dioxan-5-yl)piperidin-1-yl)methyl)-1-(((S)-oxetan-2-yl)methyl)-1H-benzo[d]imidazole-6-carboxylic acid]
1.42 | 116 | N#Cc1ccc(C2COc3cccc(C4CCN(Cc5nc6ccc(C(=O)O)cc6n5C[C@@H]5CCO5)CC4)c3O2)c(F)c1 (stereo partly drawn) [Example 16, 2-((4-(3-(4-Cyano-2-fluorophenyl)-2,3-dihydrobenzo[b][1,4]dioxan-5-yl)piperidin-1-yl)methyl)-1-((S)-oxetan-2-ylmethyl)-1H-benzo[d]imidazole-6-carboxylic acid]
